The values that follow come from the NIST ThermoML archive (doi:10.1016/j.jct.2017.02.011).

For data set [1] the following is noted: Crystal; DTA.
Data set [2] can be described thus: Molar enthalpy of transition or fusion. To be noted: Crystal; DSC.

± gives the expanded uncertainty stated by the source.

For `Cc1cc(C)[nH]n1` [3,5-dimethylpyrazole], in data set [1], the Normal melting temperature stood at 108.60 ± 0.5 °C. In addition, the “Molar enthalpy of transition or fusion” value in data set [2] came out at 3.94 ± 0.21 kcal/mol.
